From PubChem BioAssay (NCI) come the findings set out here.

Where “and” joins values, the source holds several entries; their conditions need not be identical. Equal values may be shown once.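 All cell lines were grown in 96-well plates and treated with compound for 48 hours. The concentration for 50% growth inhibition is given as GI50. TGI denotes the concentration required for complete inhibition of growth.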

Among the test systems are SK-MEL-28 melanoma; HCT-116 colon; SF-268 CNS; NCI-H522 lung; NCI-H460 lung; LOX IMVI melanoma; CAKI-1 renal; OVCAR-3 ovarian; SF-295 CNS; A498 renal.
Holding throughout (test): NCI-60 cell line screen, 48 h

Consider `Nc1c(-c2ccccc2-c2c(N)[n+]([O-])c3ccccc3[n+]2[O-])[n+]([O-])c2ccccc2[n+]1[O-]`, for which the TGI in the experiment with SK-MEL-28 melanoma was over 100 µM; in the experiment on HCT-116 colon, 74.6 µM; in the experiment on SF-268 CNS, over 100 µM; in the experiment with NCI-H522 lung, 6.87 µM; in the experiment on NCI-H460 lung, 18.5 µM; in the experiment on LOX IMVI melanoma, over 100 µM. Further, the TGI in the experiment on CAKI-1 renal is over 100 µM; in the experiment on OVCAR-3 ovarian, over 100 µM; in the experiment with SF-295 CNS, over 100 µM; with A498 renal it was 71.4 µM.

As for `CC(C)[C@H](O)C(=O)N[C@@H](C)C(=O)N[C@@H]1C(=O)N(C)CCc2ccccc21`, the GI50 with SK-MEL-28 melanoma, with HCT-116 colon, in the experiment on SF-268 CNS, in the experiment on NCI-H522 lung, with NCI-H460 lung and in the experiment on LOX IMVI melanoma was over 100 µM throughout. For the same compound, the GI50 in the experiment on CAKI-1 renal, with OVCAR-3 ovarian, in the experiment with SF-295 CNS and in the experiment with A498 renal was over 100 µM each time. For the same compound, the TGI in the experiment with SK-MEL-28 melanoma, in the experiment on HCT-116 colon, in the experiment on SF-268 CNS, in the experiment on NCI-H522 lung, with NCI-H460 lung and with LOX IMVI melanoma was over 100 µM throughout. Moreover, the TGI in the experiment on CAKI-1 renal, with OVCAR-3 ovarian, in the experiment on SF-295 CNS and with A498 renal was over 100 µM throughout.

As to `Nc1ccccc1O.O.O=C(O)C1[O][Sb][O]C1C(=O)O` (stereo not given), the GI50 was 10.2 µM with SK-MEL-28 melanoma; 17.8 µM in the experiment with HCT-116 colon; 17.5 µM in the experiment on SF-268 CNS; 2.17 µM in the experiment with NCI-H522 lung; 21.6 µM in the experiment on NCI-H460 lung; 8.59 µM in the experiment with LOX IMVI melanoma. Moreover, the GI50 in the experiment on CAKI-1 renal is 3.78 µM; in the experiment on OVCAR-3 ovarian it was 13.4 µM; in the experiment with SF-295 CNS, 39.9 µM; with A498 renal, over 90.3 µM. Also, the TGI in the experiment with SK-MEL-28 melanoma is 24.6 µM; with HCT-116 colon it was 39.6 µM; with SF-268 CNS it was over 53.4 µM; in the experiment on NCI-H522 lung, 6.24 µM; in the experiment with NCI-H460 lung, 58.5 µM; with LOX IMVI melanoma, 29.9 µM. Moreover, the TGI with CAKI-1 renal was 12.3 µM; with OVCAR-3 ovarian, 28.6 µM; with SF-295 CNS it was over 100 µM; in the experiment with A498 renal it was over 100 µM.

As for `CC1(C)CN=C(NN=C(/C=C/c2ccc(C(F)(F)F)cc2)/C=C/c2ccc(C(F)(F)F)cc2)NC1`, the GI50 was 1.64 µM in the experiment on SK-MEL-28 melanoma; 1.32 µM in the experiment on HCT-116 colon; 1.51 µM in the experiment on SF-268 CNS; 1.25 µM in the experiment with NCI-H522 lung; 1.47 µM in the experiment on NCI-H460 lung; 1.39 µM in the experiment with LOX IMVI melanoma. In addition, the GI50 is 1.09 µM in the experiment on CAKI-1 renal, 1.67 µM in the experiment on OVCAR-3 ovarian, 1.72 µM in the experiment with SF-295 CNS and 1.42 µM in the experiment on A498 renal. Further, the TGI stood at 3.25 µM in the experiment with SK-MEL-28 melanoma; 2.75 µM in the experiment with HCT-116 colon; 3.12 µM in the experiment with SF-268 CNS; 2.57 µM with NCI-H522 lung; 3.2 µM with NCI-H460 lung; 2.8 µM in the experiment with LOX IMVI melanoma. Further, the TGI was determined as 2.37 µM in the experiment on CAKI-1 renal, 3.05 µM in the experiment with OVCAR-3 ovarian, 3.28 µM with SF-295 CNS and 2.78 µM in the experiment with A498 renal.

In the case of `CCC1CN2CCc3cc(OC)c(OC)cc3C2CC1CC1c2cc(OC)c(OC)cc2CCN1C(=O)C1CCCN1` (stereo not given), the TGI in the experiment with SK-MEL-28 melanoma was found to be 50.9 µM; in the experiment on HCT-116 colon, 55 µM; with SF-268 CNS it was 65.2 µM; in the experiment on NCI-H522 lung, 35.3 µM; with NCI-H460 lung it was 74.8 µM; in the experiment with LOX IMVI melanoma, 72.4 µM. Moreover, the TGI in the experiment on CAKI-1 renal was over 100 µM; with OVCAR-3 ovarian, 90 µM; in the experiment on SF-295 CNS, over 100 µM; in the experiment with A498 renal it was 56.6 µM.

Take `c1ccc2c(c1)[nH]c1c2cc[n+]2cc3c(cc12)CCCC3`: the TGI in the experiment with SK-MEL-28 melanoma is 5.26 µM and 4.19 µM; with HCT-116 colon, 14.2 µM and 4.66 µM; in the experiment on SF-268 CNS, 12.8 µM and 18.3 µM; in the experiment on NCI-H522 lung, 5.48 µM and 6.23 µM; in the experiment with NCI-H460 lung, 4.54 µM and 3.22 µM; in the experiment on LOX IMVI melanoma, 5.05 µM and 6.75 µM. Further, the TGI was 36.2 µM and 32 µM in the experiment on CAKI-1 renal; 16 µM and 14.5 µM in the experiment on SF-295 CNS; 13.9 µM and > 100 µM in the experiment on A498 renal. Further, the GI50 is 3.3 µM in the experiment with HCT-116 colon; 2.27 µM with NCI-H522 lung; 1.66 µM with NCI-H460 lung; 2.03 µM with LOX IMVI melanoma; 2.91 µM in the experiment with OVCAR-3 ovarian; 3.48 µM in the experiment with A498 renal.

On to `O=C(c1ccco1)c1c(C(F)(F)F)n([O-])c2ccc(C(F)(F)F)cc2[n+]1=O`, for which the GI50 is 0.717 µM in the experiment on SK-MEL-28 melanoma; 0.147 µM in the experiment on HCT-116 colon; 0.266 µM in the experiment on SF-268 CNS; 0.462 µM in the experiment with NCI-H522 lung; 0.434 µM with NCI-H460 lung; 0.127 µM in the experiment on LOX IMVI melanoma. In addition, the GI50 was 0.224 µM in the experiment on CAKI-1 renal, 0.383 µM in the experiment on OVCAR-3 ovarian, 0.626 µM in the experiment on SF-295 CNS and 1.41 µM in the experiment on A498 renal. Also, the TGI came out at 1.91 µM with SK-MEL-28 melanoma; 0.279 µM with HCT-116 colon; 0.674 µM in the experiment with SF-268 CNS; 1.16 µM with NCI-H522 lung; 1.57 µM in the experiment with NCI-H460 lung; 0.257 µM in the experiment on LOX IMVI melanoma. The TGI was 0.49 µM in the experiment with CAKI-1 renal, 0.835 µM in the experiment with OVCAR-3 ovarian, 1.71 µM in the experiment with SF-295 CNS and 2.76 µM with A498 renal.

Take `CC(C)c1[nH]nc2c1N=C(c1ccccc1Cl)c1cc([N+](=O)[O-])ccc1N2`: the GI50 with SK-MEL-28 melanoma was 6.26 µM; in the experiment on HCT-116 colon, 4.35 µM; in the experiment on SF-268 CNS, 7.92 µM; in the experiment on NCI-H522 lung, 2.29 µM; in the experiment with NCI-H460 lung, 5.77 µM; in the experiment with LOX IMVI melanoma, 5 µM. Moreover, the GI50 in the experiment with CAKI-1 renal was 2.53 µM; in the experiment on OVCAR-3 ovarian, 4.68 µM; in the experiment with SF-295 CNS, 8.52 µM; with A498 renal it was 4.53 µM. The TGI in the experiment on SK-MEL-28 melanoma was over 25 µM; in the experiment on HCT-116 colon it was over 25 µM; in the experiment with SF-268 CNS it was over 25 µM; with NCI-H522 lung, over 18.3 µM; with NCI-H460 lung, 15.9 µM; in the experiment with LOX IMVI melanoma it was over 17.5 µM. For the same compound, the TGI in the experiment on CAKI-1 renal was over 13.7 µM; with OVCAR-3 ovarian, 13.1 µM; with SF-295 CNS, over 25 µM; with A498 renal it was 9.37 µM.
